# Data taken from article PMC8571282 (Nature Communications, 2021).
# Several values for one entry are separate records, joined by “and”; a condition that tells them apart may be missing. Equal values may be shown once. Read-outs that look alike come from different tables or passages of the source.
# Columns and labels:
# [1] = cited from earlier work
# [2] = system: SARS-CoV-2 WA1/2020; format: in vivo, ferret (Mustela putorius furo)
# [3] = system: SARS-CoV-2 VOC γ (BZ/2021); format: in vivo, ferret (Mustela putorius furo)
# [4] = system: SARS-CoV-2 VOC γ (BZ/2021); format: in vivo, ferret (Mustela putorius furo); remark: listed apart in the source
# [5] = in vitro; details: African green monkey, % cell viability, 72 h
# [6] = in vitro; details: hamster, % cell viability, 72 h
# [7] = in vitro; details: male, human, % cell viability, M6 HAE, 0.046 µM
# [8] = system: BHK-21 cells; assay: Cytotoxicity assay (PrestoBlue), BHK-21; details: 72 h
# [9] = system: “M2” primary HAE cells; assay: Cytotoxicity assay (PrestoBlue), “M2” HAE; details: 72 h; for % cell viability: M2 HAE
# [10] = Fig 4b, […], 10 mg/kg b.i.d., Time 0.0
# [11] = Fig 4b, […], 10 mg/kg b.i.d., Time 0.5
# [12] = Fig 4b, […], 10 mg/kg b.i.d., Time 1.0
# [13] = Fig 4b, […], 10 mg/kg b.i.d., Time 1.5
# [14] = Fig 4b, […], 10 mg/kg b.i.d., Time 2.0
# [15] = Fig 4b, […], 10 mg/kg b.i.d., Time 2.5
# [16] = Fig 4b, […], 10 mg/kg b.i.d., Time 3.0
# [17] = Fig 4b, […], 10 mg/kg b.i.d., Time 3.5
# [18] = Fig 4b, […], 10 mg/kg b.i.d., Time 4.0
# [19] = Fig 4b, […], 10 mg/kg b.i.d., all 9 time points
# [20] = headed Fig 3c, […], 10 mg/kg b.i.d., Time 0
# [21] = headed Fig 3c, […], 10 mg/kg b.i.d., Time 1
# [22] = headed Fig 3c, […], 10 mg/kg b.i.d., Time 2
# [23] = headed Fig 3c, […], 10 mg/kg b.i.d., Time 3
# [24] = headed Fig 3c, […], 10 mg/kg b.i.d., Time 4
# [25] = headed Fig 3c, […], 10 mg/kg b.i.d., all 5 time points
structure (smiles),measurement,setting,value
N#C[C@@]1(c2ccc3c(N)ncnn23)O[C@H](CO)[C@@H](O)[C@H]1O [GS-441524],oral bioavailability,"[1]; SARS-CoV2 mouse model report, ref Li et al (J. Med Chem. 2021)",5%
same,oral availability,"[1]; mice, ref Wei et al. (Bioorg. Med Chem Lett 2021, 116364)",16%
CC(C)C(=O)OCC1OC(C#N)(c2ccc3c(N)ncnn23)C(OC(=O)C(C)C)C1OC(=O)C(C)C (stereo not drawn) [GS-621763],"Transform of Nasal turbinate titers, Mean (treated)","[2]; Fig 2f, 20 mg kg-1 b.i.d., sample size 4",2.037
same,"Transform of Nasal turbinate titers, Difference between means (C - A) ± SEM","[2]; Fig 2f, treated minus Vehicle, 20 mg kg-1 b.i.d., unpaired t test",-2.239 ± 0.3026
same,"Transform of Small Intestine copies/gram, Mean (treated)","[2]; Fig 2i, 20 mg kg-1 b.i.d., sample size 4",0
same,"Transform of Small Intestine copies/gram, Difference between means (C - A) ± SEM","[2]; Fig 2i, treated minus Vehicle, 20 mg kg-1 b.i.d., unpaired t test",-1.018 ± 1.018
same,"Transform of Large Intestine copies/gram, Mean (treated)","[2]; Fig 2j, 20 mg kg-1 b.i.d., sample size 4",0
same,"Transform of Large Intestine copies/gram, Difference between means (C - A) ± SEM","[2]; Fig 2j, treated minus Vehicle, 20 mg kg-1 b.i.d., unpaired t test",-1.911 ± 1.104
same,"Transform of Nasal Turbinate RNA copies/g, Mean (treated)","[2]; Fig 2h, 20 mg kg-1 b.i.d., sample size 4",3.868
same,"Transform of Nasal Turbinate RNA copies/g, Difference between means (C - A) ± SEM","[2]; Fig 2h, treated minus Vehicle, 20 mg kg-1 b.i.d., unpaired t test",-2.950 ± 0.3528
same,SARS-CoV-2 RNA copies in lungs,[2]; in vivo,not detected
same,SARS-CoV-2 infectious particles in lungs,[2]; in vivo,109 pfu
same,Virus titers from nasal lavages,[2]; in vivo,9 pfu
same,shed SARS-CoV-2 load in nasal lavages,[2]; in vivo,transiently detectable in lavages of only one ferret
same,"viral RNA copy numbers in turbinates, difference between vehicle and treatment groups",[2]; in vivo,three
same,virus in nasal turbinates 4 days after infection,[2]; in vivo,undetectable
same,"Nasal lavage titer, Mean Diff. Vehicle - GS-621763",[3]; [10],0
same,"Nasal lavage titer, group mean (Mean 2; Transform of Brazil - Nasal Lavage Titer)",[3]; [10],0.699
same,"Nasal lavage titer, Mean Diff. Vehicle - GS-621763",[3]; [11],0
same,"Nasal lavage titer, group mean (Mean 2; Transform of Brazil - Nasal Lavage Titer)",[3]; [11],0.699
same,"Nasal lavage titer, Mean Diff. Vehicle - GS-621763",[3]; [12],0
same,"Nasal lavage titer, group mean (Mean 2; Transform of Brazil - Nasal Lavage Titer)",[3]; [12],0.699
same,"Nasal lavage titer, Mean Diff. Vehicle - GS-621763",[3]; [13],0.7768
same,"Nasal lavage titer, group mean (Mean 2; Transform of Brazil - Nasal Lavage Titer)",[3]; [13],0.699
same,"Nasal lavage titer, Mean Diff. Vehicle - GS-621763",[3]; [14],1.969
same,"Nasal lavage titer, group mean (Mean 2; Transform of Brazil - Nasal Lavage Titer)",[3]; [14],0.8495
same,"Nasal lavage titer, Mean Diff. Vehicle - GS-621763",[3]; [15],2.801
same,"Nasal lavage titer, group mean (Mean 2; Transform of Brazil - Nasal Lavage Titer)",[3]; [15],0.7742
same,"Nasal lavage titer, Mean Diff. Vehicle - GS-621763",[3]; [16],2.882
same,"Nasal lavage titer, group mean (Mean 2; Transform of Brazil - Nasal Lavage Titer)",[3]; [16],0.7742
same,"Nasal lavage titer, Mean Diff. Vehicle - GS-621763",[3]; [17],2.92
same,"Nasal lavage titer, group mean (Mean 2; Transform of Brazil - Nasal Lavage Titer)",[3]; [17],0.699
same,"Nasal lavage titer, Mean Diff. Vehicle - GS-621763",[3]; [18],2.821
same,"Nasal lavage titer, group mean (Mean 2; Transform of Brazil - Nasal Lavage Titer)",[3]; [18],0.699
same,"Nasal lavage titer, column mean of GS-621763 over all times",[3]; [19],0.7324
same,"Nasal lavage titer, difference between column means (Vehicle - GS-621763)",[3]; [19],1.574
same,"Nasal turbinate RNA, Mean Diff. Vehicle vs. GS-621763","[3]; Fig 4e, […], 10 mg/kg b.i.d.",3.96
same,"Nasal turbinate RNA, group mean of GS-621763-treated source animals (Transform of Brazil - Nasal Turbinate RNA)","[3]; Fig 4e, […], 10 mg/kg b.i.d.",5.208
same,"Turbinate titers, Mean Diff. Vehicle vs. GS-621763","[3]; Fig 4d, […], 10 mg/kg b.i.d.",3.511
same,"Turbinate titers, group mean of GS-621763-treated source animals (Transform of Brazil - Turbinate Titers)","[3]; Fig 4d, […], 10 mg/kg b.i.d.",0.9542
same,"Nasal lavage RNA, Mean Diff. Vehicle - GS-621763",[3]; [20],0
same,"Nasal lavage RNA, group mean (Mean 2; Transform of Brazil - Nasal Lavage RNA)",[3]; [20],0
same,"Nasal lavage RNA, Mean Diff. Vehicle - GS-621763",[3]; [21],0.6874
same,"Nasal lavage RNA, group mean (Mean 2; Transform of Brazil - Nasal Lavage RNA)",[3]; [21],2.265
same,"Nasal lavage RNA, Mean Diff. Vehicle - GS-621763",[3]; [22],3.062
same,"Nasal lavage RNA, group mean (Mean 2; Transform of Brazil - Nasal Lavage RNA)",[3]; [22],2.426
same,"Nasal lavage RNA, Mean Diff. Vehicle - GS-621763",[3]; [23],4.178
same,"Nasal lavage RNA, group mean (Mean 2; Transform of Brazil - Nasal Lavage RNA)",[3]; [23],2.173
same,"Nasal lavage RNA, Mean Diff. Vehicle - GS-621763",[3]; [24],3.536
same,"Nasal lavage RNA, group mean (Mean 2; Transform of Brazil - Nasal Lavage RNA)",[3]; [24],2.653
same,"Nasal lavage RNA, column mean of GS-621763 over all times",[3]; [25],1.903
same,"Nasal lavage RNA, difference between column means (Vehicle - GS-621763)",[3]; [25],2.293
same,Infectious virus titer in nasal lavage (Fig 4B),"[3]; in vivo, 10 mg/kg",5 pfu and 10 pfu
same,SARS-CoV-2 RNA copies in lungs (Fig 4G),"[3]; in vivo, 10 mg/kg",not detected
same,lowering of viral RNA copies in nasal lavages and turbinates,"[3]; in vivo, po, 10 mg/kg",over three orders of magnitude
same,shed virus burden and tissue titers,"[3]; in vivo, po, 10 mg/kg",undetectable levels
same,SARS-CoV-2 RNA copies in lungs of contacts (Fig 4G),[4]; Contact - GS-621763,not detected
same,"Nasal turbinate RNA, Mean Diff. GS-621763 vs. Contact - GS-621763","[4]; Fig 4e, […], 10 mg/kg b.i.d.",0.9216
same,"Nasal turbinate RNA, Mean Diff. GS-621763 vs. Contact - Vehicle","[4]; Fig 4e, […], 10 mg/kg b.i.d.",-3.233
same,"Nasal turbinate RNA, group mean of Contact - GS-621763 (Transform of Brazil - Nasal Turbinate RNA)","[4]; Fig 4e, […], contacts of GS-621763-treated source animals",4.287
same,"Turbinate titers, Mean Diff. GS-621763 vs. Contact - GS-621763","[4]; Fig 4d, […], 10 mg/kg b.i.d.",0
same,"Turbinate titers, Mean Diff. GS-621763 vs. Contact - Vehicle","[4]; Fig 4d, […], 10 mg/kg b.i.d.",-3.824
same,"Turbinate titers, group mean of Contact - GS-621763 (Transform of Brazil - Turbinate Titers)","[4]; Fig 4d, […], contacts of GS-621763-treated source animals",0.9542
same,Infectious virus titer in nasal lavage of contacts (Fig 4B),[4]; in vivo,5 pfu
same,"Nasal turbinate RNA, Mean Diff. Contact - Vehicle vs. Contact - GS-621763",[4]; in vivo,4.155
same,"Nasal turbinate RNA, Mean Diff. Vehicle vs. Contact - GS-621763",[4]; in vivo,4.881
same,"Turbinate titers, Mean Diff. Contact - Vehicle vs. Contact - GS-621763",[4]; in vivo,3.824
same,"Turbinate titers, Mean Diff. Vehicle vs. Contact - GS-621763",[4]; in vivo,3.511
same,viral RNA in nasal turbinates of contact animals of treated source ferrets,[4]; in vivo,< 10^5 copies/g nasal turbinate
same,virus transmission to untreated direct-contact animals,[4]; in vivo,completely blocked virus transmission
same,"viability at 72 h, 1.235 µM","[5]; VeroE6, 1.235 µM",87%
same,"viability at 72 h, 3.704 µM","[5]; VeroE6, 3.704 µM",87%
same,"viability at 72 h, 33.333 µM","[5]; VeroE6, 33.333 µM",101%
same,"viability at 72 h, 0.046 µM","[6]; BHK-21, 0.046 µM",89%
same,"viability at 72 h, 1.235 µM","[6]; BHK-21, 1.235 µM",89%
same,"viability at 72 h, 33.333 µM","[6]; BHK-21, 33.333 µM",103%
same,"viability at 72 h, 0.046 µM",[7],92%
same,% cell viability,"[8]; BHK-21, 0.046 µM, 0.046 µM",79%
same,% cell viability,"[8]; BHK-21, 1.235 µM, 1.235 µM",92%
same,% cell viability,"[8]; BHK-21, 3.704 µM, 3.704 µM",96% and 93%
same,% cell viability,"[8]; BHK-21, 33.333 µM, 33.333 µM",95%
same,% cell viability,"[8]; BHK-21, 100 µM, 100 µM",84%
same,% cell viability,[9]; 0.046 µM,88% and 92%
same,% cell viability,[9]; 1.235 µM,112%
same,% cell viability,[9]; 3.704 µM,115%
same,% cell viability,[9]; 33.333 µM,86% and 83%
same,CC50,[9]; “M2” HAE,39.7 µM
